Data as given in US11180573B2, “Extracellular matrix-producing composition using MAST4 gene and preparation method therefor” (priority 2017, dated 2021).

System: human primary chondrocytes
Assay: TGF-β1 treatment of human primary chondrocytes, expression by RT-PCR and Western blotting
Type: cell-based
Method: In detail, the human primary chondrocytes of Example 4-1 were treated with TGF-β1, and an expression level thereof was measured by RT-PCR as in Examples 1-2 and 1-3 and Western blotting.

[1] = TGF-β1 5 ng/ml for 24 hours, 48 hours, or 72 hours, FIG. 9
[2] = co-treatment with TGF-β1 (5 ng/ml), compared with single treatment with TGF-β1, FIG. 9B

Compound | MAST4 expression [1] | expression of extracellular matrix factors [1] | Acan expression increased by TGF-β1 [2] | inhibitory effect on MAST4 expression (of TGF-β1) [2]
TGF-β1: growth factor that reduces MAST4 expression in human chondrocytes | suppressed | increased |  | 
Cc1cccc(-c2[nH]c(CNc3ccccc3F)nc2-c2ccc3ncnn3c2)n1 [TEW-7197] |  |  | suppressed | decreased
